Laboratory results reported in ChEMBL document CHEMBL4393686, “InCl3 mediated heteroarylation of indoles and their derivatization via CH activation strategy: Discovery of 2-(1H-indol-3-yl)-quinoxaline derivatives as a new class of PDE4B selective inhibitors for arthritis and/or multiple sclerosis” (Eur J Med Chem, 2019).

Columns and labels:
Details in all cases: in vivo
[1] = Toxicity in zebrafish embryo assessed as effect in lower jaw formation at 3000 uM; parameters: species or system Danio rerio
[2] = Toxicity in zebrafish embryo assessed as effect in liver formation at 3000 uM; parameters: species or system Danio rerio
[3] = Toxicity in zebrafish embryo assessed as effect in heart formation at 3000 uM; assay type: tissue-based, Danio rerio
[4] = Toxicity in zebrafish embryo assessed as effect in tail formation at 3000 uM; parameters: species or system Danio rerio
[5] = Toxicity in zebrafish embryo assessed as effect in swim bladder formation at 3000 uM; parameters: species or system Danio rerio
[6] = Toxicity in zebrafish embryo assessed as effect in fin formation at 3000 uM; parameters: species or system Danio rerio
[7] = Toxicity in zebrafish embryo assessed as change in body shape at 3000 uM; parameters: species or system Danio rerio
[8] = Toxicity in zebrafish embryo assessed as effect in notochord formation at 3000 uM; parameters: species or system Danio rerio
[9] = Toxicity in zebrafish embryo assessed as effect in brain formation at 3000 uM; assay type: tissue-based, Danio rerio
[10] = Toxicity in zebrafish embryo assessed as effect in upper jaw formation at 3000 uM; parameters: species or system Danio rerio
[11] = Toxicity in zebrafish embryo assessed as effect in intestine formation at 3000 uM; assay type: tissue-based, Danio rerio
[12] = Toxicity in zebrafish embryo assessed as effect in somite formation at 3000 uM; parameters: species or system Danio rerio

Measured: Activity

CCC1(c2ccccc2)C(=O)NC(=O)NC1=O [PHENOBARBITAL]
Toxic: all assays above
